Data: patent US20110152093A1, “Herbicidal compositions comprising flufenacet” (Bayer CropScience AG, priority 2009, published 2011)

Tests used:
Assay type in all cases: in vivo
[1] = tested on: AVEFA (Avena fatua); test: PE action at different soil pH values, test method 10; conditions: PE application, g of AS/ha: (A) 90, (B) 1200, (C) 140, (A)+(B)+(C) 90 + 1200 + 140
Experimental: (§1) In the standard design of the test, seeds of various broad-leaved weed and weed grass biotypes (origins) were sown in a 8-13 cm diameter pot filled with natural soil of a standard field soil (loamy silt; non-sterile) and covered with a covering soil layer of about 1 cm. The pots were then cultivated in a greenhouse (12-16 h of light, temperature day 20-22° C., night 15-18° C.) until the time of application. The pots were treated on a laboratory track sprayer with spray liquors comprising the compositions according to the invention, mixtures of the prior art or components used individually. Application of the active compounds or active compound combinations formulated as WG, WP, EC or otherwise was carried out at the appropriate growth stages of the plants. The application rate for the spray application was 100-600 l of water/ha. After the treatment, the plants were returned to the greenhouses.
(§2) About 3 weeks after the application, the soil action or/and foliar action was assessed visually according to a scale of 0-100% in comparison to an untreated comparative group: 0%=no noticeable effect compared to the untreated comparative group; 100%=full effect compared to the untreated comparative group.

[2] = tested on: LOLPE (Lolium perenne); test: Pre-sowing application action against weeds (7 days prior to sowing), test method 5; conditions: application 7 days prior to sowing; g of AS/ha: (A) 90, (B) 1200, (C) 140, (A)+(B)+(C) 90 + 1200 + 140
Experimental: as §1, §2
(notes: the term “seeds” also includes vegetative propagation forms such as, for example, rhizome pieces; abbreviations used: h light=hours of illumination, g of AS/ha=gram of active substance per hectare, l/ha=liter per hectare, S=sensitive, R=resistant) • 1. Pre-emergence action against weeds: seeds of various broad-leaved weed and weed grass biotypes (origins) were sown in a 8-13 cm diameter pot filled with natural soil of a standard field soil (loamy silt; non-sterile) and covered with a covering soil layer of about 1 cm. The pots were then cultivated in a greenhouse (12-16 h of light, temperature day 20-22° C., night 15-18° C.) until the time of application. The pots were treated at the BBCH stage 00-10 of the seeds/plants on a laboratory track sprayer with spray liquors comprising the compositions according to the invention, mixtures or components used individually, as WG, WP, EC or other formulations. The application rate for the spray application was 100-600 l of water/ha. After the treatment, the plants were returned to the greenhouses and, when required, treated with fertilizer and watered. • 2. Post-emergence action against weeds: seeds of various broad-leaved weed and weed grass biotypes (origins) were sown in a 8-13 cm diameter pot filled with natural soil of a standard field soil (loamy silt; non-sterile) and covered with a covering soil layer of about 1 cm. The pots were then cultivated in a greenhouse (12-16 h of light, temperature day 20-22° C., night 15-18° C.) until the time of application. […]

[3] = tested on: VIOAR (Viola arvensis); test: Post-emergence (PO) action against weeds, greenhouse trial, test method 2; conditions: PO application; g of AS/ha: (A) 240, (B) 1200, (C) 140, (A)+(B)+(C) 240 + 1200 + 140
Experimental: as §1, §2
(§3) (notes: the term “seeds” also includes vegetative propagation forms such as, for example, rhizome pieces; abbreviations used: h light=hours of illumination, g of AS/ha=gram of active substance per hectare, l/ha=liter per hectare, S=sensitive, R=resistant) • 1. Pre-emergence action against weeds: seeds of various broad-leaved weed and weed grass biotypes (origins) were sown in a 8-13 cm diameter pot filled with natural soil of a standard field soil (loamy silt; non-sterile) and covered with a covering soil layer of about 1 cm. The pots were then cultivated in a greenhouse (12-16 h of light, temperature day 20-22° C., night 15-18° C.) until the time of application. The pots were treated at the BBCH stage 00-10 of the seeds/plants on a laboratory track sprayer with spray liquors comprising the compositions according to the invention, mixtures or components used individually, as WG, WP, EC or other formulations. The application rate for the spray application was 100-600 l of water/ha. After the treatment, the plants were returned to the greenhouses and, when required, treated with fertilizer and watered. • 2. Post-emergence action against weeds: seeds of various broad-leaved weed and weed grass biotypes (origins) were sown in a 8-13 cm diameter pot filled with natural soil of a standard field soil (loamy silt; non-sterile) and covered with a covering soil layer of about 1 cm. The pots were then cultivated in a greenhouse (12-16 h of light, temperature day 20-22° C., night 15-18° C.) until the time of application. The pots were treated at various BBCH stages between 11-25 of the seeds/plants, i.e. generally between two to three weeks after the start of the cultivation, on a laboratory track sprayer with spray liquors comprising the compositions according to the invention, mixtures or components used individually, as WG, WP, EC or other formulations. The application rate for the spray application was 100-600 l of water/ha. After the treatment, the plants were returned to the greenhouses and, when required, treated with fertilizer and watered. • 3. […]

[4] = tested on: POAAN (Poa annua); test: as above; conditions: PO application; g of AS/ha: (A) 240, (B) 1200, (C) 140, (A)+(B)+(C) 240 + 1200 + 140
Experimental: as §1, §2, §3

[5] = tested on: ALOMY sensitive (Alopecurus myosuroides); test: PE action on resistant weed biotypes, test method 8; conditions: PE application; g of AS/ha: (A) 90, (B) 1200, (C) 140, (A)+(B)+(C) 90 + 1200 + 140, iodosulfuron 10
Experimental: as §1, §2
(§4) (notes: the term “seeds” also includes vegetative propagation forms such as, for example, rhizome pieces; abbreviations used: h light=hours of illumination, g of AS/ha=gram of active substance per hectare, l/ha=liter per hectare, S=sensitive, R=resistant) • 1. Pre-emergence action against weeds: seeds of various broad-leaved weed and weed grass biotypes (origins) were sown in a 8-13 cm diameter pot filled with natural soil of a standard field soil (loamy silt; non-sterile) and covered with a covering soil layer of about 1 cm. The pots were then cultivated in a greenhouse (12-16 h of light, temperature day 20-22° C., night 15-18° C.) until the time of application. The pots were treated at the BBCH stage 00-10 of the seeds/plants on a laboratory track sprayer with spray liquors comprising the compositions according to the invention, mixtures or components used individually, as WG, WP, EC or other formulations. The application rate for the spray application was 100-600 l of water/ha. After the treatment, the plants were returned to the greenhouses and, when required, treated with fertilizer and watered. • 2. Post-emergence action against weeds: seeds of various broad-leaved weed and weed grass biotypes (origins) were sown in a 8-13 cm diameter pot filled with natural soil of a standard field soil (loamy silt; non-sterile) and covered with a covering soil layer of about 1 cm. The pots were then cultivated in a greenhouse (12-16 h of light, temperature day 20-22° C., night 15-18° C.) until the time of application. The pots were treated at various BBCH stages between 11-25 of the seeds/plants, i.e. generally between two to three weeks after the start of the cultivation, on a laboratory track sprayer with spray liquors comprising the compositions according to the invention, mixtures or components used individually, as WG, WP, EC or other formulations. The application rate for the spray application was 100-600 l of water/ha. After the treatment, the plants were returned to the greenhouses and, when required, treated with fertilizer and watered. • 3. Selective pre-emergence action: seeds of various crop species (origins) were sown in a 8-13 cm diameter pot filled with natural soil of a standard field soil (loamy silt; non-sterile) and covered with a covering soil layer of about 1 cm. The pots were then cultivated in a greenhouse (12-16 h of light, temperature day 20-22° C., night 15-18° C.) until the time of application. The pots were treated at the BBCH stage 00-10 of the seeds/plants on a laboratory track sprayer with spray liquors comprising the compositions according to the invention, mixtures or components used individually, as WG, WP, EC or other formulations. The application rate for the spray application was 100-600 l of water/ha. […]

[6] = tested on: ALOMY resistant (Alopecurus myosuroides); test: as above; conditions: PE application; g of AS/ha: (A) 90, (B) 1200, (C) 140, (A)+(B)+(C) 90 + 1200 + 140, iodosulfuron 10
Experimental: as §1, §2, §4

[7] = tested on: HORVS (Hordeum vulgare, summer barley); test: Selective post-emergence action (crop compatibility), greenhouse trial, test method 4; conditions: PO application; g of AS/ha: (A) 240, (B) 1200, (C) 140, (A)+(B)+(C) 240 + 1200 + 140
Experimental: as §1, §2
(notes: the term “seeds” also includes vegetative propagation forms such as, for example, rhizome pieces; abbreviations used: h light=hours of illumination, g of AS/ha=gram of active substance per hectare, l/ha=liter per hectare, S=sensitive, R=resistant) • 1. Pre-emergence action against weeds: seeds of various broad-leaved weed and weed grass biotypes (origins) were sown in a 8-13 cm diameter pot filled with natural soil of a standard field soil (loamy silt; non-sterile) and covered with a covering soil layer of about 1 cm. The pots were then cultivated in a greenhouse (12-16 h of light, temperature day 20-22° C., night 15-18° C.) until the time of application. […]

[8] = tested on: HORVS (Hordeum vulgare, summer barley); test: Action under various soil conditions (soil types), test method 7, crop compatibility; conditions: g of AS/ha: (A) 90, (B) 1200, (C) 140, (A)+(B)+(C) 90 + 1200 + 140
Experimental: as §1, §2, §3

[9] = tested on: MATCH (Matricaria chamomilla); test: PE action under various irrigation conditions, test method 6; conditions: PE application; irrigation from below; g of AS/ha: (A) 90, (B) 1200, (C) 140, (A)+(B)+(C) 90 + 1200 + 140
Experimental: as §1, §2, §4

[10] = tested on: LOLPE (Lolium perenne); test: as above; conditions: PE application, g of AS/ha: (A) 90, (B) 1200, (C) 140, (A)+(B)+(C) 90 + 1200 + 140
Experimental: as §1, §2, §4

[11] = tested on: MATCH (Matricaria chamomilla); test: Action under various soil conditions (soil types), test method 7; conditions: g of AS/ha: (A) 90, (B) 1200, (C) 140, (A)+(B)+(C) 90 + 1200 + 140
Experimental: as §1, §2, §4

[12] = tested on: STEME (Stellaria media); test: as above; conditions: IU/EC73 soil versus IU soil; g of AS/ha: (A) 90, (B) 1200, (C) 140, (A)+(B)+(C) 90 + 1200 + 140
Experimental: as §1, §2, §4

Row | SMILES | activity AVEFA pH 7.4 ([1]; soil pH 7.4) | activity AVEFA pH 8.4 ([1]; soil pH 8.4) | activity LOLPE [2] | activity VIOAR (visual, scale 0-100%) [3] | activity POAAN (visual, scale 0-100%) [4] | activity ALOMY sensitive [5] | activity ALOMY resistant [6] | activity HORVS (crop plant; visual, scale 0-100%) [7] | activity HORVS IU soil (crop plant) ([8]; IU soil) | Difference of the soil types, HORVS ([8]; IU/EC73 soil versus IU soil) | activity MATCH [9] | activity LOLPE ([10]; irrigation from above) | activity LOLPE ([10]; irrigation from below) | activity MATCH IU soil ([11]; IU soil) | Difference of the soil types, MATCH ([11]; IU/EC73 soil versus IU soil) | activity MATCH IU/EC73 soil ([11]; IU/EC73 soil) | Difference of the soil types, STEME [12]
1 | CSc1nnc(C(C)(C)C)c(=O)n1N [(C) metribuzin, 4-amino-6-(1,1-dimethylethyl)-3-(methylthio)-1,2,4-triazin-5(4H)-one] | 90% | 90% | 100% | 90% | 79% | 85% | 80% | 70% | 20% | −20% | 60% | 55% | 48% | 0% | +15% | 15% | −70%
2 | COc1nc(C)nc(NC(=O)NS(=O)(=O)c2cc(I)ccc2C(=O)O)n1 [(C)^1 iodosulfuron, iodosulfuron] | – | – | – | – | – | 90% | 40% | – | – | – | – | – | – | – | – | – | –
